Measured values as given in patent US8389538B2, “Rexinoid compound having alkoxy group” (National University Corporation Okayama University, priority 2007, dated 2013).
Read-outs that look alike come from different tables or passages of the source.

Experiments:
[1] = system: Human leukemia cell strain HL-60; test: HL-60 differentiation induction (NBT reduction method); assay type: cell-based; details: for Retinoid synergistic activity BA(%) / Retinoid activity BA(%): maximum differentiation inducing rate relative to total cell number
Procedure: Human leukemia cell strain HL-60 differentiates into granulocytes (neutrophils) to come to have an ability to express active oxygen. […] A method for measuring differentiation inducibility of cells into granulocytes by using this principle is referred to as NBT reduction method. So, the differentiation inducibility of the synthesized compound was measured by NBT reduction method. […] Each compound was dissolved in dimethylsulfoxide (DMSO) into 20 mM to prepare a stock solution. NBT was prepared into 0.2 w/v % by using PBS (−) 2 hours before use and incubated at 37° C. TPA was dissolved in ethanol (EtOH) into 2 mg/mL to prepare a stock solution. This TPA solution was prepared into 20 μg/mL by using PBS (−) at the time of use. […] The action of RXR agonist is enhanced by the combined use of that and RAR agonist. […] After four days cultivation, cells were collected by centrifugation (4° C., 1500 rpm, 5 minutes). After these cells were seeded onto 1 mL of a fresh growth medium, then 1 mL of 0.2 w/v % NBT solution and 20 μl of 20 μg/ml of TPA solution were added, and incubation was carried out in the incubator containing 5% CO2 at 37° C. for 30 minutes. Then, stained cell number and total cell number were counted on a cell counter. Meanwhile, the measurement was conducted three times by counting 200 cells or more at a time and a differentiation inducing rate was calculated from a mean value obtained by averaging them. […] Meanwhile, “inert” means that differentiation inducibility can not be observed even at 10 μM. Likewise, b) BA (bioactivity) (%) refers to the maximum differentiation inducing rate relative to the total cell number in this test.

[2] = target: T1, RXRγ (Homo sapiens, UniProt P48443); test: RXR reporter gene assay (luciferase) in COS-1 cells, RXRγ; assay type: cell-based; details: for Emax: COS-1; for EC50 / RXRγ Emax (%): COS-1 cells; for EC50: half of maximum transcriptional activation potential; for RXRγ Emax (%): relative to PA024 (1 μM) = 100%
T1 construct: expressed in transfected cells; host or cells: COS-1 cells
T1 sequence (P48443 1-463): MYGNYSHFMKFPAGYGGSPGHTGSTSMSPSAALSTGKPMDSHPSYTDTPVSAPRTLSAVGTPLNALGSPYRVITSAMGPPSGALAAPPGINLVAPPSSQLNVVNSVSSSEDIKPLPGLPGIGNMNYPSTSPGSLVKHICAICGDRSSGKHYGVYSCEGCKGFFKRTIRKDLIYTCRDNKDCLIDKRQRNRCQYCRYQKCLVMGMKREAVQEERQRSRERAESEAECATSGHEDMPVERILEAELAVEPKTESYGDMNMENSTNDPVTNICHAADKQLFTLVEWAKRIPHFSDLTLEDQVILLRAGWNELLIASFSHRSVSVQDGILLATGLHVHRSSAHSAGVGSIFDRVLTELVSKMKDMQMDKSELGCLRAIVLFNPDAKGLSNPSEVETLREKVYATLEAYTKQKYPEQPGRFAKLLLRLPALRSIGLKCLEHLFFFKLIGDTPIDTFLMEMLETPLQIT
Procedure: (§1) Most of nuclear receptors are transcription factors associated with regulating transcription, so that reporter gene assay is conducted as a means of measuring its transcription activity. An expression plasmid for RXR receptor protein and a reporter plasmid were introduced into cells such as COS-1 cells and HeLa cells to cause overexpression. And, when RXR agonist is bound to the receptor, transcription is induced in a ligand dependent manner, and a protein which is referred to as fusion protein downstream is produced. The binding of this fusion protein to the binding site on the reporter plasmid initiates the transcription to produce luciferase downstream. RXR agonistic activity was measured by measuring this luciferase activity.
(§2) Dulbecco's Modified Eagle MEM medium (DMEM) was used as growth medium.
(§3) Passage was conducted by removing culture supernatant from the cell culture grown in a 100 mm culture dish, collecting cells by trypsinization, centrifuging at 1000 rpm at 4° C. for 3 minutes, then dispersing cells by adding growth medium and growing them in a 100 mm culture dish (15 mL of growth medium) at 37° C. in the presence of 5% CO2.
(§4) Transformation was conducted using Effectene™ Transfection Reagent (QIAGEN). Further, Luciferase Assay System was used for evaluating luciferase activity. Am80 was used for the positive control of RAR, and 9-cis retinoic acid was used for the positive control of RXR. They were dissolved in DMSO for use as a stock solution and measured on every plate to be assayed.
(§5) • On day 1: COS-1 cells were seeded along with 15 mL of growth medium in a 60 mm culture dish at 50×10^4 cells and were cultured over night. • On day 2: Transformation was conducted by lipofection using Effectene™ Transfection Reagent. • On day 3: 16 to 18 hours later, the culture supernatant was removed, cells were collected by trypsinization, centrifugation was conducted at 1000 rpm at 4° C. for 3 minutes, then cells were dispersed by adding growth medium, and then the cells were seeded on a 96-well white plate at 2.0×10^4 cells/well. Then, each compound was added at DMSO concentration of 1% or below. • On day 4: 24 hours later, 25 μL of the supernatant was used for SEAP measurement, and the rest cell-containing solution was used for measuring luciferase activity.
(§6) In Table 5, a) EC50 indicated a concentration giving the half of the maximum transcriptional activation potential.

[3] = target: T2, RXRα (Homo sapiens, UniProt P19793); test: RXR reporter gene assay (luciferase) in COS-1 cells, RXRα; assay type: cell-based; details: for Emax: COS-1; for EC50 / RXRα Emax (%): COS-1 cells; for EC50: half of maximum transcriptional activation potential; for RXRα Emax (%): relative to PA024 (1 μM) = 100%
T2 construct: expressed in transfected cells; host or cells: COS-1 cells
T2 sequence (P19793 1-462): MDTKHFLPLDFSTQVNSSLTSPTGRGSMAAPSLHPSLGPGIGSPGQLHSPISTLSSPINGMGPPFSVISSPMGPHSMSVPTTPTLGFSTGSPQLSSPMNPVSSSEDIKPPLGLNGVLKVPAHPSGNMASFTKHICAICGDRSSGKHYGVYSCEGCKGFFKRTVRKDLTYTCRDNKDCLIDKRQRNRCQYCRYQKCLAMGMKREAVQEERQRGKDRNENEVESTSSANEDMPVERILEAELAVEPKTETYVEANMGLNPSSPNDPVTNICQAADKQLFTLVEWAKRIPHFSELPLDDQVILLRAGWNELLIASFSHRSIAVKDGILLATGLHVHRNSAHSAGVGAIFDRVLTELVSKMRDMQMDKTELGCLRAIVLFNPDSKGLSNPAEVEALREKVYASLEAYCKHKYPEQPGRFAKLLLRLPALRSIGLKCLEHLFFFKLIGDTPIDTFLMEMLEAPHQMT
Procedure: as §1, §2, §3, §4, §5, §6

[4] = system: edema induced by carrageenin; test: Carrageenin edema test; assay type: in vivo; details: rats, 10 mg/kg oral, 3 hours before carrageenin; 3 hours after the administration of carrageenin; hind foot pads
Procedure: Carrageenin edema test was used for anti-inflammatory test by using rats. 10 mg/kg compound 1a (NEt-3IP) was orally administered to five rats in a group, and then 3 hours later, 1% carrageenin solution, which was an edema-inducing substance, was subcutaneously administered to the hind foot pads (0.1 mL/rat). Then, 1, 2, 3 and 4 hours after that, the thickness of edema of the hind foot pads was measured. […] The rate of inhibiting edema was 27% 3 hours after the administration of carrageenin.

[5] = target: T3, RXRβ (Homo sapiens, UniProt P28702); test: RXR reporter gene assay (luciferase) in COS-1 cells, RXRβ; assay type: cell-based; details: for Emax: COS-1; for EC50 / RXRβ Emax (%): COS-1 cells; for EC50: half of maximum transcriptional activation potential; for RXRβ Emax (%): relative to PA024 (1 μM) = 100%
T3 construct: expressed in transfected cells; host or cells: COS-1 cells
T3 sequence (P28702 1-533): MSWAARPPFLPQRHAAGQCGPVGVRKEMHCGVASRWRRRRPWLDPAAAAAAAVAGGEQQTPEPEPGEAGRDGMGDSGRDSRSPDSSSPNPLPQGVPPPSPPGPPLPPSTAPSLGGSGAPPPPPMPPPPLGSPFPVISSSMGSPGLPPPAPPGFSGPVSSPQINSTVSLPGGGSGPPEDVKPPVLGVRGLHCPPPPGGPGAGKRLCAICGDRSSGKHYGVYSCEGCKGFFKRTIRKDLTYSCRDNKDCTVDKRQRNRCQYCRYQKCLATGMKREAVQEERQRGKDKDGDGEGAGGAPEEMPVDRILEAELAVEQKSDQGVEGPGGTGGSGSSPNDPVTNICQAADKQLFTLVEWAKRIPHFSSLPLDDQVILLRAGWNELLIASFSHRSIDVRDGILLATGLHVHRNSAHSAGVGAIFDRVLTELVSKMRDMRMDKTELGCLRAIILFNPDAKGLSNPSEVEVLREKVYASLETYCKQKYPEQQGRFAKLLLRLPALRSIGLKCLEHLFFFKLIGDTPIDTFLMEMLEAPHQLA
Procedure: as §1, §2, §3, §4, §5, §6

[6] = system: Histone Deacetylase (HDAC); test: HDAC Activity/Inhibitor Screening Assay Kit (Cayman); assay type: biochemical; details: at 100 μM
Procedure: Activity Evaluation Method 3: Histone Deacetylase (HDAC) Inhibitory Activity
HDAC inhibitory activity was evaluated for compounds represented by formulae XVII and XVIII, through the use of HDAC Activity/Inhibitor Screening Assay Kit supplied by Cayman and according to that protocol.

[7] = Am80 present at 3.3×10^−10 M, half of maximum differentiation inducing rate, read-out: Retinoid synergistic activity SEC50
[8] = test compound alone, concentration giving half of maximum differentiation inducing rate, four days culture, read-out: Retinoid activity EC50
[9] = Homo sapiens, HL-60, 96 h, test compound alone, concentration giving half of maximum differentiation inducing rate, four days culture, read-out: Retinoid activity EC50

| Compound | EC50 [1, 7] | Retinoid synergistic activity BA(%) ([1]; Am80 present at 3.3×10^−10 M) | EC50 [1, 8] | Retinoid activity BA(%) ([1]; test compound alone) | EC50 [2] | EC50 [3] | EC50 [5] | further results |
| --- | --- | --- | --- | --- | --- | --- | --- | --- |
| CCCOc1cc(Nc2ccc(C(=O)O)cn2)ccc1C(C)C [Compound 2c] | 4300 nM | 60% | > 10000 nM | 50% |  |  |  |  |
| CC(C)Oc1cc(Nc2ccc(C(=O)O)cn2)ccc1C(C)C [Compound 1c] | 4500 nM | 63% | > 10000 nM | 24% |  |  |  |  |
| CCN(c1ccc(C(C)C)c(OC(C)C)c1)c1ccc(C(=O)O)cn1 [Compound 1a] | 10 nM | 80% |  | 4% | > 380 nM | 27 nM | 35 nM | Emax [2]: > 88%; Emax [3]: 130%; selectivity for RXRα/β over RXRγ ([3]; reporter gene assay, RXRα/β versus RXRγ): ≥ 10 times; rate of inhibiting edema [4]: 27%; EC50 [1, 9]: > 10000 nM; Emax [5]: 110% |
| CC(C)Oc1cc(N(c2ccc(C(=O)O)cn2)S(C)(=O)=O)ccc1C(C)C [Compound 1b] | 900 nM | 63% | > 10000 nM | 44% |  |  |  |  |
| CCCOc1ccc(Nc2ccc(C(=O)O)cn2)cc1C(C)C [Compound 5c] | > 10000 nM | 15% | > 10000 nM | 3% |  |  |  |  |
| CCN(c1ccc(C(C)C)c(OCC(C)C)c1)c1ncc(C(=O)O)cn1 [Compound 7a] |  |  |  |  | 4.9 nM | 2.9 nM | 7.3 nM | RXRγ Emax (%) [2]: 105%; RXRα Emax (%) [3]: 110%; RXRβ Emax (%) [5]: 140% |
| CCN(c1ccc(C(C)C)c(OC(C)C)c1)c1ccc(/C=C/C(=O)O)cn1 [XVII] |  |  |  |  |  |  |  | HDAC activity inhibition rate [6]: 78% |
| CCN(c1ccc(OC(C)C)c(C(C)C)c1)c1ccc(C(=O)O)cn1 [Compound 4a] | 23 nM | 64% | > 10000 nM |  | > 350 nM | > 660 nM | > 1300 nM | RXRγ Emax (%) [2]: >81%; RXRα Emax (%) [3]: >110%; RXRβ Emax (%) [5]: >80% |
| CCN(c1ccc(C(C)C)c(OC(C)C)c1)c1ncc(C(=O)O)cn1 [Compound 6a] | 12 nM | 87% |  | 3% | > 58 nM | 6 nM | 18 nM | Emax [2]: 105%; Emax [3]: 110%; EC50 [1, 9]: > 10000 nM; Emax [5]: 100% |
| CCCOc1cc(N(c2ccc(C(=O)O)cn2)S(C)(=O)=O)ccc1C(C)C [Compound 2b] | 800 nM | 63% | > 10000 nM | 50% |  |  |  |  |
| CC(C)Oc1ccc(Nc2ccc(C(=O)O)cn2)cc1C(C)C [Compound 4c] | > 10000 nM | 29% | > 10000 nM | 24% |  |  |  |  |
| CCCOc1cc(N(CC)c2ccc(C(=O)O)cn2)ccc1C(C)C [Compound 2a] | 23 nM | 74% | > 10000 nM | 4% |  |  |  |  |
